The target of data set [1] is T1, ETB receptors (Homo sapiens, UniProt P24530).
T1 construct: host or cells: man (in vivo)
T1 sequence (P24530 27-442): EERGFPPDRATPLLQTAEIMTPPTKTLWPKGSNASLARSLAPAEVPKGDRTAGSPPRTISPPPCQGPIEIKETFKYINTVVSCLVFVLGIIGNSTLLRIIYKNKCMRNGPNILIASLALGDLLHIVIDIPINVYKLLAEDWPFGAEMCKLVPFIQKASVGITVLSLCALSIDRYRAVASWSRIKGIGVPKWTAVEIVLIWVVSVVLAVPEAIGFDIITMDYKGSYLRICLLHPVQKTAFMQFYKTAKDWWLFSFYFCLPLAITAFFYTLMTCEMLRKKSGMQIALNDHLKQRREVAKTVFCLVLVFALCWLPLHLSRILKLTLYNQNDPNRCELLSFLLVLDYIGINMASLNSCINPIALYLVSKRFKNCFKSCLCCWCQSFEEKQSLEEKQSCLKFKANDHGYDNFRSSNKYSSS
The conditions noted are these: in man; cited from earlier work.

Data set [2] relates to ETA/B receptor. The conditions noted are these: hypertensive patients; cited from earlier work.
A short description of data set [3]: Test B(b): plasma protein binding by equilibrium dialysis. The data set is classed as in vitro ADME. As to conditions: dog, canine plasma. From the text: (b) Determination of plasma protein binding by equilibrium dialysis
An example of a method used is described below.
Plasma containing the test compound was placed in a chamber (half-cell), separated by a semi-permeable membrane (Spectra/Por™ 1 47 mm diam MWCO 6-8000) from isotonic buffer at physiological pH in the other half-cell. The system was allowed to equilibrate, such that low molecular weight compounds distributed evenly between the two chambers (plasma and buffer), whilst high molecular weight molecules were restricted to the plasma chamber. At equilibrium the concentration of the unbound test compound is the same on either side of the membrane. The concentration of total test compound in each half-cell was then determined (using essentially the described above) and the extent of plasma protein binding calculated.
The Spectra/Por™ Equilibrium Dialyzer used to determine protein binding was supplied by NBS Biologicals.
(In general: In equilibrium dialysis free small molecules cross a membrane that holds back macromolecules.)

The subject of data set [4] is ET-1-induced pressor response. The experiment in a line: Test C: inhibition of ET-1-induced pressor response in conscious beagle dogs. The data set is classed as in vivo. As to the method: Inhibition of ET-1-induced Pressor Response in Conscious Beagle Dogs
Studies were performed in surgically prepared conscious beagle dogs (13-17 kg) which were well adjusted to the laboratory environment. Surgical preparation was performed under recovery anaesthesia to insert an indwelling aortic catheter with external access between the scapulae and protruding subcutaneous ECG studs, positioned for the recording of lead 11 electrocardiograms. During studies dogs were placed, unrestrained, in “Pavlov” type slings. The aortic catheter was connected to a pressure transducer for the measurement of systemic arterial pressure and ECG studs, via patient cables, to a bio-amplifier for the recording of electrocardiograms. ET-1 was administered as a 15 min infusion (25 pmoles/kg/min) via a temporary catheter inserted into the saphenous vein. Test compound or placebo was administered by oral gavage (0.5 or 2.0 mg/kg) at 1 and 24 hours prior to the infusion of ET-1. Individual studies investigated no more than a single dose of test compound or placebo at any one time. Systemic arterial pressure and electrocardiograms were recorded for one hour prior to and one hour after the start of the infusion of ET-1. Test compounds were evaluated by comparing the effects of placebo or test compound on the magnitude of pressor response elicited by ET-1.

For data set [5], the system named is dogs with pacing-induced CHF. The experiment in a line: Congestive heart failure induced by rapid ventricular pacing in dogs. The data set is classed as in vivo. As for the experimental part:
A group of animals receiving ACE-inhibitor treatment served as positive control.
Heart failure was induced by rapid ventricular pacing, which is a well established and extensively documented model It is the only heart failure model that allows control of the degree of heart failure by adjusting the pacing rate.
Dogs were paced throughout the study at pacing rates up to 220-240 bpm leading to steadily progressing CHF.
Group 1: Placebo (Furosemide 4 mg/kg/day BID per os, n=6)
Group 2: ET-receptor antagonist (2 mg/kg/day SID per os+Furosemide as above, n=6)
Group 3: Enalapril maleate (1 mg/kg/day BID per os+Furosemide as above)
(n=6, positive control) was initiated 2 weeks after start of pacing and continued for 3 weeks.
Throughout the study, both clinical parameters (heart murmurs, edema formation, dyspnoe) as well as haemodynamic (CO, blood pressure, cardiac contractility, and heart rate) and humoral parameters (plasma catecholamines, ANF, ET-1) were measured to determine morbidity and quality of life of the animals.
Dosing of the animals during the 3-week treatment period took place BID@8 am and 4 pm:
Improvement in cardiac function is illustrated by the effect of Compound X on the left ventricular enddiastolic pressure (LVEDP) in resting dogs before and during progressive CHF induced by pacing at […]. Test compounds were given for 3 weeks while pacing continued. In the graph below, the Y-axis is LVEDP in mm, and the X-axis is the time in weeks. […] [In the study, 5 dogs were treated with placebo, 3 dogs were treated with enalapril, and 5 dogs were treated with Compound X] [drawing 5]
Dogs were paced for 2 weeks to develop CHF and then assigned to oral gavage treatment with either placebo (vehicle), Compound X (2 mg/kg/day, sid), or enalapril (1 mg/kg/day, bid). In addition, all animals received the diuretic furosemide (4 mg/kg/day, bid) throughout treatment period. During the 3-week treatment period, rapid ventricular pacing was continued. Pacing led to deterioration of myocardial and circulatory function with progression of CHF as indicated by increases in left ventricular enddiastolic pressure (LVEDP) and reductions of cardiac contractility and output. In addition, all animals were assessed for clinical parameters of CHF by an independent veterinarian.
Throughout the study dogs were studied twice weekly at rest and during standardised exercise on a treadmill at two different speeds.

The nature of data set [6]: Test B: pharmacokinetic study in the dog, plasma concentrations after i.v. infusion. The data set is classed as in vivo. As to conditions: for Estimated % of Kb at 24 hours following 2.0 mg/kg i.v. dose: 0.5 mg/kg value multiplied by 4; for % of Kb at 24 hours following 0.5 mg/kg i.v. dose: free plasma concentration as percentage of Kb from Test A; for concentration at 24 h: plasma, intravenous, 0.5 mg/kg. As to the method: In order to assess the potential of test ET antagonists to provide efficacy, a pharmacokinetic study in the dog was carried out.
Blood samples were taken at various time points and centrifuged to provide plasma samples. These samples were analysed using Mass Spectrometry to provide total plasma concentrations.
Total plasma concentrations in the dog were determined by comparison with the standard line constructed (using the spiked plasma samples) to cover the expected concentration range.
(c) Calculation of free plasma concentrations [formula] or % protein bound=(1−Fu)×100
The free plasma concentrations of the compound can then be determined.
Free plasma concentration=total plasma concentration (from method (a))×fraction unbound (from method (b))

Data set [7] concerns dog renal artery strips (ET-1-induced contraction). The experiment in a line: Test A: inhibition of contraction induced by ET-1 in dog renal artery strips to generate Kb values. The conditions noted are these: Canis lupus familiaris, 1.25 h, ET-1 contraction, 75 minutes incubation with test compound, single concentration, read-out: Apparent Kb. The data set is classed as cell-based, beagle dogs. From the text: Inhibition of Contraction Induced by ET-1 in Dog Renal Artery Strips to Generate Kb Values
A Kb value is a measure of functional activity, and this is taken to be the free plasma concentration of a test compound required to provide efficacy.
Renal arteries from beagle dogs (body weight 9-15 kg) were cut into spirals and divided into 5 mm long strips. The side of each strip that was adjacent to the lumen of the vessel was gently rubbed to remove the endothelium. […] The tension generated by each strip was recorded isometrically. After incubating the tissues with test compound for 75 minutes, cumulative concentration response curves were constructed to ET-1 in the presence of 10 μM Bestatin, 10 μM Captopril, 10 μM Thiorphan, 50 μM indomethacin and 0.001% BSA. Only a single ET-1 curve was constructed in each tissue and tension increases expressed as a percentage of the response to 120mM KCl determined before the addition of the test compound. […] This is the ratio of the EC50 in the presence of the test compound divided by the EC50 in its absence. The DR is then put into the following equation:
apparent pKb=log(DR−1)−log[B] (where B=molar concentration of test compound)

The test system of data set [8] is neointimal formation. As to conditions: after balloon angioplasty; cited from earlier work.
The test system of data set [9] is heart disease in dogs. The conditions noted are these: veterinary clinical trial, dogs with heart disease; cited from earlier work.
Setting [10] is: 2 mg/kg/day sid p.o. plus furosemide, 3 weeks.
[11] abbreviates: 0.5 mg/kg i.v. infusion over 10 minutes, read-out: Total plasma concentration at 24 hours following 0.5 mg/kg iv dose.
Setting [12] is: total plasma concentration x fraction unbound, read-out: Free concentration at 24 hours following 0.5 mg/kg i.v. dose.

Read-outs that look alike come from different tables or passages of the source.

As for `CCCC[C@@H](NC(=O)[C@@H](Cc1cn(C(=O)OC)c2ccccc12)NC(=O)[C@H](CC(C)(C)C)NC(=O)N1[C@H](C)CCC[C@@H]1C)C(=O)O` [BQ-788], the “Effect on peripheral resistance” value in data set [1] was “increase peripheral resistance”.

For `COc1ccccc1Oc1c(NS(=O)(=O)c2ccc(C(C)(C)C)cc2)nc(-c2ncccn2)nc1OCCO` [Bosentan], the “Effect on blood pressure” value in [2] was “decreased blood pressure”.

The term fraction unbound denotes the share of the substance not bound to proteins or other matrix. In general, inhibition refers to the drop in the measured response relative to a control, in per cent. A low value points to a response near the control. Turning to `COc1ccccc1Oc1c(NS(=O)(=O)CCc2ccccc2)nc(-c2ncccn2)nc1OC` [Compound X, N-[6-methoxy-5-(2-methoxyphenoxy)-2-(2-pyrimidinyl)-4-pyrimidinyl]-2-phenylethansulphonamide], the unbound share (fraction unbound) in [3] was determined as 0.09. For the same molecule, in [4] (0.5 mg/kg p.o., 1 hour prior to ET-1 infusion), the “Change in arterial pressure elicited by ET-1” value is on record as 3 ΔmmHg. The “Change in arterial pressure elicited by ET-1” value in data set [4] (2.0 mg/kg p.o., 24 hours prior to ET-1 infusion) is on record as 3 ΔmmHg. For the same molecule, the inhibition at 0.5 mg/kg in data set [4] (Canis lupus familiaris, po, 0.5 mg/kg p.o., 1 hour prior to ET-1 infusion) was found to be 76%. Further, at 2 mg/kg the inhibition in data set [4] (Canis lupus familiaris, po, 2.0 mg/kg p.o., 24 hours prior to ET-1 infusion) was 80%. In [5] (setting [10]), the “Arterial blood pressure (BP)” value is on record as “lower arterial blood pressure”; the Cardiac output result is on record as “maintained or even increased cardiac output”; the “LVEDP at rest and during treadmill exercise” value is recorded as “significantly improved LVEDP not only under resting conditions but even more so during treadmill exercise”; the “LVEDP relative to pre-treatment values” is given as “lowered LVEDP below pre-treatment values”. In addition, in data set [5] (2 mg/kg/day sid p.o. plus furosemide, 3 weeks, pacing 210-240 bpm, versus placebo and enalapril), the “Left ventricular enddiastolic pressure (LVEDP) in resting dogs” value was “Significant improvements over both placebo and enalapril”. Moreover, the Exercise tolerance entry in data set [5] (all treated animals, placebo group three out of six developed exercise intolerance) was “maintained exercise tolerance throughout the study”. The “Heart failure class, NYHA scale (I-IV)” value in data set [5] (all treated animals, placebo group three out of six reached class III) is recorded as “class II”. In data set [6], the “Estimated % of Kb at 24 hours following 2.0 mg/kg i.v. dose” value (from here on “Estimated % of Kb”) was 196% and the “% of Kb at 24 hours following 0.5 mg/kg i.v. dose” value turned out to be 49%. Moreover, the concentration at 24 h in data set [6] (setting [11]) was 466 nM. In addition, in data set [6] (setting [12]), the concentration at 24 h came to 41.9 nM. Besides, the Kb in [7] is 0.086 µM.

`COCCOc1nc(-c2ncccn2)nc(NS(=O)(=O)CCc2ccccc2)c1Oc1ccccc1OC` [Example 2, WO 98/57938] had an unbound share (fraction unbound) in data set [3] of 0.12. In data set [6], the “Estimated % of Kb” value was less than 32% and the “% of Kb at 24 hours following 0.5 mg/kg i.v. dose” value is less than 8%. For the same molecule, the concentration at 24 h in data set [6] (setting [11]) is less than 93 nM. For the same molecule, in data set [6] (setting [12]), the concentration at 24 h is less than 11 nM. For the same molecule, the Kb in [7] was 0.136 µM.

For `COc1cc(OC)nc(O[C@H](C(=O)O)C(OC)(c2ccccc2)c2ccccc2)n1` [LU 135,252], the free fraction (fraction unbound) in [3] was 0.032. Further, in [6], the “Estimated % of Kb” value is reported as 4.8% and the “% of Kb at 24 hours following 0.5 mg/kg i.v. dose” value is given as 1.2%. Moreover, the concentration at 24 h in data set [6] (setting [11]) stood at 40 nM. Besides, the concentration at 24 h in [6] (setting [12]) amounted to 1.3 nM. For the same molecule, in data set [7], the Kb was found to be 0.111 µM.

Regarding `CCCOc1ccc2c(c1)[C@@H](c1ccc(OC)cc1OCC(=O)O)[C@H](C(=O)O)[C@H]2c1ccc2c(c1)OCO2` [SB-209670], the “Reduction in neointimal formation relative to control animals” value in [8] is recorded as 50%.

Turning to `CCOC(=O)[C@H](CCc1ccccc1)N[C@@H](C)C(=O)N1CCC[C@H]1C(=O)O` [enalapril], in data set [9], the Cardiac function result is listed as “did not improve cardiac function” and the Disease progression result was “significant slow down in disease progression”.

(Values after US20020037903A1, “Use of pyrimidine endothelin antagonists in companion animals” (priority 2000, published 2002).)
